{"source": "the NIST ThermoML archive (doi:10.1021/je0600092)", "settings": "101.33 kPa, Liquid; for speed of sound: Light diffraction method; for thermal diffusivity: Optical interferometry", "note": "± gives the expanded uncertainty stated by the source.", "data": [{"smiles": "CCCCn1cc[n+](C)c1.F[P-](F)(F)(F)(F)F", "note": "[1-butyl-3-methylimidazolium hexafluorophosphate]", "values": [{"measurement": "speed of sound", "setting": "293.15 K", "result": "1441 ± 11", "unit": "m/s"}, {"measurement": "thermal diffusivity", "setting": "293.15 K", "result": "7.5e-08 ± 5e-09", "unit": "m2/s"}]}, {"smiles": "CCCCCCCCn1cc[n+](C)c1.O=S(=O)([N-]S(=O)(=O)C(F)(F)F)C(F)(F)F", "values": [{"measurement": "speed of sound", "setting": "293.15 K", "result": "1232 ± 11", "unit": "m/s"}, {"measurement": "thermal diffusivity", "setting": "293.15 K", "result": "6.1e-08 ± 5e-09", "unit": "m2/s"}]}, {"smiles": "CCCCCC[n+]1ccn(C)c1.O=S(=O)([N-]S(=O)(=O)C(F)(F)F)C(F)(F)F", "values": [{"measurement": "speed of sound", "setting": "293.15 K", "result": "1232 ± 11", "unit": "m/s"}, {"measurement": "thermal diffusivity", "setting": "293.15 K", "result": "6.06e-08 ± 3.2e-09", "unit": "m2/s"}]}, {"smiles": "CCn1cc[n+](C)c1.O=S(=O)([N-]S(=O)(=O)C(F)(F)F)C(F)(F)F", "values": [{"measurement": "speed of sound", "setting": "293.15 K", "result": "1240 ± 10", "unit": "m/s"}, {"measurement": "thermal diffusivity", "setting": "293.15 K", "result": "6.01e-08 ± 2.9e-09", "unit": "m2/s"}]}, {"smiles": "CCCCn1cc[n+](C)c1.F[B-](F)(F)F", "note": "[1-butyl-3-methylimidazolium tetrafluoroborate]", "values": [{"measurement": "speed of sound", "setting": "293.15 K", "result": "1564 ± 10", "unit": "m/s"}, {"measurement": "thermal diffusivity", "setting": "293.15 K", "result": "8.6e-08 ± 4e-09", "unit": "m2/s"}]}, {"smiles": "CCCC[n+]1ccn(C)c1.O=S(=O)([N-]S(=O)(=O)C(F)(F)F)C(F)(F)F", "values": [{"measurement": "speed of sound", "setting": "293.15 K", "result": "1227 ± 13", "unit": "m/s"}, {"measurement": "thermal diffusivity", "setting": "293.15 K", "result": "6e-08 ± 3e-09", "unit": "m2/s"}]}, {"smiles": "CCCCCn1cc[n+](C)c1.O=S(=O)([N-]S(=O)(=O)C(F)(F)F)C(F)(F)F", "values": [{"measurement": "speed of sound", "setting": "298.15 K", "result": "1227 ± 7", "unit": "m/s"}, {"measurement": "thermal diffusivity", "setting": "298.15 K", "result": "5.8e-08 ± 3e-09", "unit": "m2/s"}]}]}
